# Measurements: US10344024B2, “Compounds as ROR gamma modulators” (Glenmark Pharmaceuticals S.A., priority 2015, dated 2019)
# Target: T1, GST-tagged ROR gamma ligand binding domain (LBD) (Homo sapiens, UniProt P51449)
# T1 construct: purchased Invitrogen
# T1 sequence (P51449 269-508 limits assumed): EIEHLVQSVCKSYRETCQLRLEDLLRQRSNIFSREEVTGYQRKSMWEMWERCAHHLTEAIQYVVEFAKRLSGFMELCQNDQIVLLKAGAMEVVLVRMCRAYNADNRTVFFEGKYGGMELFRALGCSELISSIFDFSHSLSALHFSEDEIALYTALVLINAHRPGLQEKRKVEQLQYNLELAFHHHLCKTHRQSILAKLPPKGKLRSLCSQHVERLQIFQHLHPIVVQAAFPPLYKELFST
# Experiment: TR-FRET assay for ROR gamma (LanthaScreen co-activator peptide recruitment)
# Type: biochemical
# Settings: for inhibition at 1 µM: compound concentration 1 μM; for inhibition at 1 µM / inhibition at 10 µM: TR-FRET ratio 520/495, percent of control; for inhibition at 10 µM: compound concentration 10 μM; for IC50: from dose response curve, nonlinear regression, read-out: IC50 range
# From the text: The compounds described herein were screened for ROR gamma modulator activity using the TR-FRET assay (LanthaScreen™ available from Invitrogen of Carlsbad, Calif.) as described in JBC 2011, 286, 26: 22707-10; and Drug Metabolism and Disposition 2009, 37, 10: 2069-78.
# Binding of the co-activator peptide, causes an increase in the TR-FRET signal while binding of an antagonist decreases the recruitment of the co-activator peptide, causing a decrease in the TR-FRET signal compared to control with no compound. The assay was performed using a two-step procedure, pre-incubation step with the compound followed by the detection step on addition of the anti-GST tagged terbium (Tb) and fluorescein tagged fluorophores as the acceptor.
# Test compounds or reference compounds such as T0901317 (Calbiochem) were dissolved in dimethylsulfoxide (DMSO) to prepare 10.0 mM stock solutions and diluted to the desired concentration. The final concentration of DMSO in the reaction was 4% (v/v). The assay mixture was prepared by mixing 10 nM of the GST-tagged ROR gamma ligand binding domain (LBD) in the assay buffer containing 25 mM HEPES (pH 7.4), 100 mM NaCl, 5 mM DTT and 0.01% BSA with or without the desired concentration of the compound. The reaction was incubated at 22° C. for 1 hour. The pre-incubation step was terminated by addition of the detection mixture containing 300 nM Fluorescein-D22 co-activator peptide and 10 nM lantha screen Tb-anti GST antibody into the reaction mixture.
# After shaking for 5 minutes the reaction was further incubated for 1 hour at room temperature and read at 4° C. on an Infinite F500 reader as per the kit instructions (Invitrogen). The inhibition of test compound was calculated based on the TR-FRET ratio of 520/495. The activity was calculated as a percent of control reaction. IC50 values were calculated from dose response curve by nonlinear regression analysis using GraphPad Prism software.
SMILES,inhibition at 1 µM,inhibition at 10 µM,IC50
"Cc1ccc([C@@H](C)Oc2nccnc2-c2ccc(NC(=O)Cc3ccc(C(F)(F)C(C)O)cc3)cc2)c(Cl)c1 (stereo partly drawn) [Example 88, N-(4-(3-((R)-1-(2-Chloro-4-methylphenyl)ethoxy)pyrazin-2-yl)phenyl)-2-(4-(1,1-difluoro-2-hydroxypropyl)phenyl)acetamide]",87.4%,85.5%,< 50 nM
"CCC(F)(F)c1ccc(CC(=O)Nc2ccc(-c3nccnc3O[C@H](C)c3ccccc3Cl)cc2)cc1 [Example 83, (R)-N-(4-(3-(1-(2-Chlorophenyl)ethoxy)pyrazin-2-yl)phenyl)-2-(4-(1,1-difluoropropyl)phenyl)acetamide]",79.7%,78.2%,50 to 100 nM
"CC(O)C(F)(F)c1ccc(CC(=O)Nc2ccc(-c3nccnc3OC3(c4ccccc4)CC3)cc2)cc1 (stereo not shown) [Example 82, 2-(4-(1,1-Difluoro-2-hydroxypropyl)phenyl)-N-(4-(3-(1-phenylcyclopropoxy)pyrazin-2-yl)phenyl)acetamide]",37.9%,80.1%,–
"CC(O)C(F)(F)c1ccc(CC(=O)Nc2ccc(-c3nccnc3O[C@H](C)c3ccccc3Cl)cc2)cc1 (stereo partly drawn) [Example 84, N-(4-(3-((R)-1-(2-Chlorophenyl)ethoxy)pyrazin-2-yl)phenyl)-2-(4-(1,1-difluoro-2-hydroxypropyl)phenyl)acetamide]",83.8%,81.9%,50 to 100 nM
"CCC(F)(F)c1ccc(CC(=O)Nc2ccc(-c3nccnc3OCc3ccc(F)cc3Cl)cc2)cc1 [Example 77, N-(4-(3-((2-Chloro-4-fluorobenzyl)oxy)pyrazin-2-yl)phenyl)-2-(4-(1,1-difluoropropyl)phenyl)acetamide]",80.5%,73.7%,< 50 nM
"CCC(F)(F)c1ccc(CC(=O)Nc2ccc(-n3nc(C(F)(F)F)cc3-c3ccccc3Cl)cc2)cc1 [Example 29, N-(4-(5-(2-Chlorophenyl)-3-(trifluoromethyl)-1H-pyrazol-1-yl)phenyl)-2-(4-(1,1-difluoropropyl)phenyl)acetamide]",77.1%,79.8%,< 50 nM
"CC(O)C(F)(F)c1ccc(CC(=O)Nc2ccc(-c3nccnc3N3CCC(F)(F)CC3)cc2)cc1 (stereo not shown) [Example 18, 2-(4-(1,1-Difluoro-2-hydroxypropyl)phenyl)-N-(4-(3-(4,4-difluoropiperidin-1-yl)pyrazin-2-yl)phenyl)acetamide]",32.4%,71.2%,–
"CCC(F)(F)c1ccc(CC(=O)Nc2ccc(-c3nccnc3OC(C)c3ccccc3)cc2)cc1 (stereo not shown) [Example 76, 2-(4-(1,1-Difluoropropyl)phenyl)-N-(4-(3-(1-phenylethoxy)pyrazin-2-yl)phenyl)acetamide]",78.1%,87.5%,100 to 500 nM
"CCC(F)(F)c1ccc(CC(=O)Nc2ccc(-c3nccnc3N(C)c3ccc(Cl)cc3)cc2)cc1 [Example 55, N-(4-(3-((4-Chlorophenyl)(methyl)amino)pyrazin-2-yl)phenyl)-2-(4-(1,1-difluoropropyl)phenyl)acetamide]",56.5%,64.6%,–
"CCC(F)(F)c1ccc(CC(=O)Nc2ccc(-c3nccnc3-c3ccc(=O)n(C)c3)cc2)cc1 [Example 25, 2-(4-(1,1-Difluoropropyl)phenyl)-N-(4-(3-(1-methyl-6-oxo-1,6-dihydropyridin-3-yl)pyrazin-2-yl)phenyl)acetamide]",18.9%,59.7%,–
"CCC(F)(F)c1ccc(CC(=O)Nc2ccc(-c3nccnc3N[C@H](C)c3ccccc3)cc2)cc1 [Example 59, (R)-2-(4-(1,1-Difluoropropyl)phenyl)-N-(4-(3-((1-phenylethyl)amino)pyrazin-2-yl)phenyl)acetamide]",58.6%,79.7%,–
